Reference: patent publication US8815565B2, “Method for culturing mycoplasma contamination-free cells and method for removing mycoplasma contamination of cells” (Cellsafe Co., Ltd., priority 2010, dated 2014)

System: cells contaminated with mycoplasma
Assay: Mycoplasma removal potential when amphidinol derivative was used, by filter pore size
Type: cell-based
Description: A medium was removed from the cell culture (80 to 90% confluent) which was cultured in the T-75 culture flask in (1) of Example 3 and which was confirmed as being contaminated with mycoplasma. The obtained cells were washed twice with 10 ml of a phosphate buffer solution. 2 ml of trypsin-EDTA was added thereto, followed by incubating at a temperature of 37° C. for 10 minutes to detach cells. Then, DMEM (GIBCO BRL, Cat. No. 12800-058) was added thereto to obtain 10 ml of cell suspension, which was then transferred to a 15 ml conical tube. The cell suspension in the conical tube was centrifuged at a rate of 1,500 rpm for 5 minutes, and then the supernatant was removed therefrom. 10 ml of 5% FBS-containing DMEM (GIBCO BRL, Cat. No. 12800-058) was added to the conical tube to obtain a cell suspension. The obtained cell suspension was divided into two groups each having an amount of 5 ml. […] The cell suspensions of the group 1 and 2 were diluted with 5% FBS-including DMEM (GIBCO BRL, Cat. No. 12800-058) to adjust the cell concentration to about 2.5×10^5 cells/ml, respectively. 4 ml of each cell suspension of the group 1 and 2 (each having about 2.5×10^5 cells/ml of cells) was transferred to a 15 ml tube, and then […] of 5% FBS-containing DMEM (GIBCO BRL, Cat. No. 12800-058) was added thereto. […] 10 ml of each of the obtained mixtures was transferred to a T-75 culture flask, followed by culturing for 3 days in a CO2 incubator for 3 days (passage 1 sub-culturing).
The medium was removed from the cell culture (80 to 90% confluent) which was cultured in the T-75 culture flask for 3 days. The obtained cells were washed twice with 10 ml of a phosphate buffer solution. 2 ml of trypsin-EDTA was added thereto, followed by incubating at a temperature of 37° C. for 10 minutes to detach the cells. Then, DMEM (GIBCO BRL, Cat. No. 12800-058) was added thereto to obtain 10 ml of cell suspension, which was then transferred to a 15 ml conical tube. The cell suspension in the conical tube was centrifuged at a rate of 1,500 rpm for 5 minutes, and then the supernatant was removed therefrom. 10 ml of 10% FBS-containing DMEM (GIBCO BRL, Cat. No. 12800-058) was added to the conical tube to obtain a cell suspension. The obtained cell suspension was divided into two groups each having an amount of 5 ml. […] The cell suspensions of the group 1 and 2 were diluted with 10% FBS-including DMEM (GIBCO BRL, Cat. No. 12800-058) to adjust the cell concentration to about 2.5×10^5 cells/ml, respectively. 4 ml of each cell suspension of the group 1 and 2 (each having about 2.5×10^5 cells/ml of cells) was transferred to a 15 ml tube, and then 5.5 ml of 10% FBS-containing DMEM (GIBCO BRL, Cat. No. 12800-058) was added thereto. […] 10 ml of each of the obtained mixtures was transferred to a T-75 culture flask, followed by culturing […] (passage 2 sub-culturing). The sub-culturing was performed twice more, and thus, passage 4 sub-culturing steps in total were performed.
Mycoplasma contamination was measured regarding the respective cells of the additional passages 1, 3, 6, 10, 12, 15, and 33 after the initial passage 4 treatments. Whether mycoplasma was removed was measured with a mycoplasma diagnosis kit (Promokine, Germany; Cellsafe Co., Ltd., Korea) according to the enclosed protocol. The resulting PCR products were electrophoresed on a 1% agarose gel to measure the mycoplasma contamination.
Sub-culturing was performed in the same manner as in (1), except that 2 μg/ml of the compound of Formula 3 was used as a reagent for removing mycoplasma , and the filters (Millipore) having pore sizes of 11, 20, 30, 60, 80, 90, and 100 μm and the filters (Falcon) having pore sizes of 40, 50, and 70 μm were used, and then, the mycoplasma contamination was measured.

SMILES: C=C/C=C/CC/C=C/C=C/C=C/CC/C=C/C(O)C(O)C1OC(C(O)C(O)C(=C)CCC(O)C2CC(O)C(O)C(C(O)C(O)/C=C(\C)CCC(O)CC(O)C(O)C(C)CC(O)C(O)CCCCCC(O)CCCC(O)/C=C/CC(O)/C=C/CC(O)CO)O2)CC(O)C1O (centres unmarked) [AM3, amphidinol 3]
- mycoplasma contamination (2 μg/ml, Pore size 11 μm, Passage 1 after treatment): −
- mycoplasma contamination (2 μg/ml, Pore size 11 μm, Passage 3 after treatment): −
- mycoplasma contamination (2 μg/ml, Pore size 11 μm, Passage 6 after treatment): −
- mycoplasma contamination (2 μg/ml, Pore size 11 μm, Passage 10 after treatment): −
- mycoplasma contamination (2 μg/ml, Pore size 11 μm, Passage 12 after treatment): −
- mycoplasma contamination (2 μg/ml, Pore size 11 μm, Passage 15 after treatment): −
- mycoplasma contamination (2 μg/ml, Pore size 11 μm, Passage 33 after treatment): −
- mycoplasma contamination (2 μg/ml, Pore size 20 μm, Passage 1 after treatment): −
- mycoplasma contamination (2 μg/ml, Pore size 20 μm, Passage 3 after treatment): −
- mycoplasma contamination (2 μg/ml, Pore size 20 μm, Passage 6 after treatment): −
- mycoplasma contamination (2 μg/ml, Pore size 20 μm, Passage 10 after treatment): −
- mycoplasma contamination (2 μg/ml, Pore size 20 μm, Passage 12 after treatment): −
- mycoplasma contamination (2 μg/ml, Pore size 20 μm, Passage 15 after treatment): −
- mycoplasma contamination (2 μg/ml, Pore size 20 μm, Passage 33 after treatment): −
- mycoplasma contamination (2 μg/ml, Pore size 30 μm, Passage 1 after treatment): −
- mycoplasma contamination (2 μg/ml, Pore size 30 μm, Passage 3 after treatment): −
- mycoplasma contamination (2 μg/ml, Pore size 30 μm, Passage 6 after treatment): −
- mycoplasma contamination (2 μg/ml, Pore size 30 μm, Passage 10 after treatment): −
- mycoplasma contamination (2 μg/ml, Pore size 30 μm, Passage 12 after treatment): −
- mycoplasma contamination (2 μg/ml, Pore size 30 μm, Passage 15 after treatment): −
- mycoplasma contamination (2 μg/ml, Pore size 30 μm, Passage 33 after treatment): −
- mycoplasma contamination (2 μg/ml, Pore size 40 μm, Passage 1 after treatment): −
- mycoplasma contamination (2 μg/ml, Pore size 40 μm, Passage 3 after treatment): −
- mycoplasma contamination (2 μg/ml, Pore size 40 μm, Passage 6 after treatment): −
- mycoplasma contamination (2 μg/ml, Pore size 40 μm, Passage 10 after treatment): −
- mycoplasma contamination (2 μg/ml, Pore size 40 μm, Passage 12 after treatment): −
- mycoplasma contamination (2 μg/ml, Pore size 40 μm, Passage 15 after treatment): −
- mycoplasma contamination (2 μg/ml, Pore size 40 μm, Passage 33 after treatment): −
- mycoplasma contamination (2 μg/ml, Pore size 50 μm, Passage 1 after treatment): −
- mycoplasma contamination (2 μg/ml, Pore size 50 μm, Passage 3 after treatment): −
- mycoplasma contamination (2 μg/ml, Pore size 50 μm, Passage 6 after treatment): −
- mycoplasma contamination (2 μg/ml, Pore size 50 μm, Passage 10 after treatment): −
- mycoplasma contamination (2 μg/ml, Pore size 50 μm, Passage 12 after treatment): −
- mycoplasma contamination (2 μg/ml, Pore size 50 μm, Passage 15 after treatment): −
- mycoplasma contamination (2 μg/ml, Pore size 50 μm, Passage 33 after treatment): −
- mycoplasma contamination (2 μg/ml, Pore size 60 μm, Passage 1 after treatment): −
- mycoplasma contamination (2 μg/ml, Pore size 60 μm, Passage 3 after treatment): −
- mycoplasma contamination (2 μg/ml, Pore size 60 μm, Passage 6 after treatment): −
- mycoplasma contamination (2 μg/ml, Pore size 60 μm, Passage 10 after treatment): −
- mycoplasma contamination (2 μg/ml, Pore size 60 μm, Passage 12 after treatment): −
- mycoplasma contamination (2 μg/ml, Pore size 60 μm, Passage 15 after treatment): −
- mycoplasma contamination (2 μg/ml, Pore size 60 μm, Passage 33 after treatment): −
- mycoplasma contamination (2 μg/ml, Pore size 70 μm, Passage 1 after treatment): −
- mycoplasma contamination (2 μg/ml, Pore size 70 μm, Passage 3 after treatment): −
- mycoplasma contamination (2 μg/ml, Pore size 70 μm, Passage 6 after treatment): −
- mycoplasma contamination (2 μg/ml, Pore size 70 μm, Passage 10 after treatment): −
- mycoplasma contamination (2 μg/ml, Pore size 70 μm, Passage 12 after treatment): −
- mycoplasma contamination (2 μg/ml, Pore size 70 μm, Passage 15 after treatment): −
- mycoplasma contamination (2 μg/ml, Pore size 70 μm, Passage 33 after treatment): −
- mycoplasma contamination (2 μg/ml, Pore size 80 μm, Passage 1 after treatment): −
- mycoplasma contamination (2 μg/ml, Pore size 80 μm, Passage 3 after treatment): −
- mycoplasma contamination (2 μg/ml, Pore size 80 μm, Passage 6 after treatment): −
- mycoplasma contamination (2 μg/ml, Pore size 80 μm, Passage 10 after treatment): −
- mycoplasma contamination (2 μg/ml, Pore size 80 μm, Passage 12 after treatment): −
- mycoplasma contamination (2 μg/ml, Pore size 80 μm, Passage 15 after treatment): −
- mycoplasma contamination (2 μg/ml, Pore size 80 μm, Passage 33 after treatment): −
- mycoplasma contamination (2 μg/ml, Pore size 90 μm, Passage 1 after treatment): −
- mycoplasma contamination (2 μg/ml, Pore size 90 μm, Passage 3 after treatment): −
- mycoplasma contamination (2 μg/ml, Pore size 90 μm, Passage 6 after treatment): −
- mycoplasma contamination (2 μg/ml, Pore size 90 μm, Passage 10 after treatment): −
- mycoplasma contamination (2 μg/ml, Pore size 90 μm, Passage 12 after treatment): −
- mycoplasma contamination (2 μg/ml, Pore size 90 μm, Passage 15 after treatment): −
- mycoplasma contamination (2 μg/ml, Pore size 90 μm, Passage 33 after treatment): −
- mycoplasma contamination (2 μg/ml, Pore size 100 μm, Passage 1 after treatment): −
- mycoplasma contamination (2 μg/ml, Pore size 100 μm, Passage 3 after treatment): −
- mycoplasma contamination (2 μg/ml, Pore size 100 μm, Passage 6 after treatment): −
- mycoplasma contamination (2 μg/ml, Pore size 100 μm, Passage 10 after treatment): −
- mycoplasma contamination (2 μg/ml, Pore size 100 μm, Passage 12 after treatment): −
- mycoplasma contamination (2 μg/ml, Pore size 100 μm, Passage 15 after treatment): −
- mycoplasma contamination (2 μg/ml, Pore size 100 μm, Passage 33 after treatment): −
- mycoplasma contamination (filter having a pore size of 10 to 100 μM): completely removed
